A short description of data set [1]: Soil test (potting soil/sand, tap water) for release profile. In kind it is physicochemical. An excerpt:
To further explore behavior of the IER-AAI complex in conditions found in the soil, a soil test was developed to mimic in-vivo conditions by mixing potting soil with sand, based on the understanding that most soil in the field is not of the same quality as premium potting soil, but instead typically contains more clay or sand. The samples run through the soil test were WG01, WG02, WG05-WG10.
In this experiment, potting soil was mixed with sand in a 19:31 ratio. Then the desired amount of IER-AAI complex (the amount of resin that would allow the total AAI to be 25 mg) was mixed homogenously in with the soil. The Buchner funnel was fitted with filter paper and the filter paper was wet with a little bit of tap water. The Buchner funnel was then placed in an Erlenmeyer flask with a side arm fitted with a rubber adaptor. The side arm was hooked up to a vacuum and the vacuum turned on. Next, the sand/soil/IER-AAI mixture was poured into the Buchner funnel. 10 mL of tap water was poured evenly over the sand/soil/IER-AAI mixture and flooding was observed. Once the water drained into the Erlenmeyer flask, the Buchner funnel was removed and the water transferred into a glass vial. The Buchner funnel was replaced back on the Erlenmeyer flask, the vacuum turned back on, and another 10 mL of tap water was poured evenly over the sand/soil/IER-AAI mixture. This process was repeated until 10×10 mL fractions were collected. Each fraction was then analyzed for UV absorbance at 200-400 nm using a ThermoScientific model Evolution 201, diluting samples when necessary. Comparing the absorbance values against a calibration curve, the amount of AAI in each fraction was calculated.
The percent loading and release profile for each AAI was obtained based on the protocols described in Examples 14 and 15 respectively, except that the AAI content was held constant at 20 mg instead of 25 mg.

The nature of data set [2]: Sand column test, release of chloramben with DI water then 2M NaOH. In kind it is physicochemical. The following applies: for release profile in sand column (FIG. 1): result in words. The source says:
To assess the extended release properties of our WDG and HSC formulations (prepared in accordance with Example 7) we employed a sand column method as described below, where the results of the sand column test can be extrapolated to represent in vivo soil conditions.
Sand column tests were run first with water and then with a 2M NaOH ionic solution. […] The rest of the sand column tests were then run with 2M NaOH; we selected the hydroxyl ion as a representative anion to illustrate the release of the AAI through ion exchange.
First, the sand to be used in the sand column was weighed out into a centrifuge tube. Then the sand was wetted with DI water until flowable and vortexed to mix. Next, the sand was introduced into a Lab-Crest Buret fitted with a Stopcock. DI water was then passed through the sand column to remove any sand that had stuck to the side of the buret. Excess water was drained, until the water level was just at the top of the sand. In a separate small centrifuge tube, the sand was mixed with the experimental sample, and this mixture was added to the top of the sand column. Chloramben control and samples formulated as WG01, WG02, and HSC01 (as described above) were tested.
For each Sample, the experiment was conducted as follows. […] 7×10 mL fractions were collected from the column in appropriately sized culture tubes at 10 mL fractions. The stopcock was closed as the water level reached the top of the sand. […] 7×10 mL fractions were collected in appropriately sized culture tubes. Each fraction was then analyzed for UV absorbance at 200-400 nm using a ThermoScientific model Evolution 201, diluting samples when necessary. Comparing the absorbance values against a calibration curve, the amount of AAI in each fraction was calculated.
The results of these experiments are shown in the graph in FIG. 1.
Fractions 1-7 were run with deionized water flushing through the column, while fractions 8-14 were run with 2 M NaOH flushing through the column. The arrow indicates where the changeover from DI water to NaOH occurred. […] Only when there was a counterion present for exchange (i.e. OH^− in the NaOH), did the chloramben in the test samples start to release more quickly.

Setting [3] is: benzoic acid, 25 mg total AAI, 10x10 mL tap water, FIG. 2.
[4] abbreviates: benzoic acid, 25 mg total AAI, 10x10 mL tap water, FIG. 3.
Where [5] appears, read: benzoic acid, 25 mg total AAI, HSC comparison, FIG. 5.
Setting [6] is: control, no eluent named in head.
[7] abbreviates: whole run, DI water then 2M NaOH, same value under both heads.
Setting [8] is: chloramben, 25 mg total AAI, 10x10 mL tap water, FIG. 4.
The mark [9] stands for this setting: dicamba, 20 mg total AAI, FIG. 6.
[10] abbreviates: gibberellic acid, 20 mg total AAI, FIG. 9.
[11] abbreviates: imidacloprid, 20 mg total AAI, FIG. 8.
The mark [12] stands for this setting: nicosulfuron, 20 mg total AAI, FIG. 7.

Structures are written as SMILES.

Turning to `O=C(O)c1ccccc1` [Benzoic Acid Control, Benzoic acid], in data set [1] (setting [3]), the “Percent Released” value was found to be 97% and the “Total AAI Released” value was 24 mg. In addition, in data set [1] (setting [4]), the “Percent Release” value is 97% and the “Total AAI Released” value stood at 24 mg. Besides, in data set [1] (setting [5]), the “Percent Release” value is listed as 97% and the “Total AAI Released” value was found to be 24 mg.

On to `Nc1cc(Cl)cc(C(=O)O)c1Cl` [Chloramben Control, Chloramben], for which, in data set [2] (setting [6]), the “% chloramben released in first two fractions” value was determined as 44% and the “Total mg chloramben released” value was 20.92 mg. Besides, in data set [2], the “release profile in sand column (FIG. 1)” value is “released more quickly”. Further, the “release profile in sand column (FIG. 1)” value in data set [2] (listed as control chloramben powder) is “released very quickly”. For the same molecule, in data set [2] (setting [7]), the “% chloramben remaining” value is 30% and the “% total chloramben released” value was 70%. In data set [1] (setting [8]), the “Percent Release” value is given as 71% and the “Total AAI Released” value is 18 mg.

In the case of `COc1c(Cl)ccc(Cl)c1C(=O)O` [Dicamba Control, Dicamba], in data set [1] (setting [9]), the “Percent Release” value stood at 100% and the “Total AAI Released” value is given as 20 mg.

In the case of `C=C1C[C@]23C[C@@]1(O)CC[C@H]2[C@@]12C=C[C@H](O)[C@@](C)(C(=O)O1)[C@H]2[C@@H]3C(=O)O` [GA Control, Gibberellic Acid], in data set [1] (setting [10]), the “Percent Release” value was 99% and the “Total AAI Released” value is reported as 20 mg.

For the molecule `O=[N+]([O-])NC1=NCCN1Cc1ccc(Cl)nc1` [ICD Control, Imidacloprid], in data set [1] (setting [11]), the “Percent Release” value worked out at 98% and the “Total AAI Released” value is listed as 20 mg.

For the molecule `COc1cc(OC)nc(NC(=O)NS(=O)(=O)c2ncccc2C(=O)N(C)C)n1` [NSN Control, Nicosulfuron], in data set [1] (setting [12]), the “Percent Release” value turned out to be 52% and the “Total AAI Released” value is recorded as 10 mg.

Source of the values: patent US20170332627A1, “AGROCHEMICAL RESINATES FOR AGRICULTURAL APPLICATIONS” (priority 2014, published 2017).
